One assay has as its target T1, HCoV-OC43 spike protein (Human coronavirus OC43, UniProt P36334).
T1 construct: gene S
Type of assay: binding.

The target in assay [1] is S-RBD protein; SARS-CoV-2 RBD (Severe acute respiratory syndrome coronavirus 2, UniProt P0DTC2). The experiment in a line: 1H CPMG and STD NMR; DARTS. Type of assay: binding. Conditions: 200 µM S416, 5 µM RBD, PBS in D2O, 5% DMSO-d6, 25 °C.

T1 sequence (P36334 14-1297): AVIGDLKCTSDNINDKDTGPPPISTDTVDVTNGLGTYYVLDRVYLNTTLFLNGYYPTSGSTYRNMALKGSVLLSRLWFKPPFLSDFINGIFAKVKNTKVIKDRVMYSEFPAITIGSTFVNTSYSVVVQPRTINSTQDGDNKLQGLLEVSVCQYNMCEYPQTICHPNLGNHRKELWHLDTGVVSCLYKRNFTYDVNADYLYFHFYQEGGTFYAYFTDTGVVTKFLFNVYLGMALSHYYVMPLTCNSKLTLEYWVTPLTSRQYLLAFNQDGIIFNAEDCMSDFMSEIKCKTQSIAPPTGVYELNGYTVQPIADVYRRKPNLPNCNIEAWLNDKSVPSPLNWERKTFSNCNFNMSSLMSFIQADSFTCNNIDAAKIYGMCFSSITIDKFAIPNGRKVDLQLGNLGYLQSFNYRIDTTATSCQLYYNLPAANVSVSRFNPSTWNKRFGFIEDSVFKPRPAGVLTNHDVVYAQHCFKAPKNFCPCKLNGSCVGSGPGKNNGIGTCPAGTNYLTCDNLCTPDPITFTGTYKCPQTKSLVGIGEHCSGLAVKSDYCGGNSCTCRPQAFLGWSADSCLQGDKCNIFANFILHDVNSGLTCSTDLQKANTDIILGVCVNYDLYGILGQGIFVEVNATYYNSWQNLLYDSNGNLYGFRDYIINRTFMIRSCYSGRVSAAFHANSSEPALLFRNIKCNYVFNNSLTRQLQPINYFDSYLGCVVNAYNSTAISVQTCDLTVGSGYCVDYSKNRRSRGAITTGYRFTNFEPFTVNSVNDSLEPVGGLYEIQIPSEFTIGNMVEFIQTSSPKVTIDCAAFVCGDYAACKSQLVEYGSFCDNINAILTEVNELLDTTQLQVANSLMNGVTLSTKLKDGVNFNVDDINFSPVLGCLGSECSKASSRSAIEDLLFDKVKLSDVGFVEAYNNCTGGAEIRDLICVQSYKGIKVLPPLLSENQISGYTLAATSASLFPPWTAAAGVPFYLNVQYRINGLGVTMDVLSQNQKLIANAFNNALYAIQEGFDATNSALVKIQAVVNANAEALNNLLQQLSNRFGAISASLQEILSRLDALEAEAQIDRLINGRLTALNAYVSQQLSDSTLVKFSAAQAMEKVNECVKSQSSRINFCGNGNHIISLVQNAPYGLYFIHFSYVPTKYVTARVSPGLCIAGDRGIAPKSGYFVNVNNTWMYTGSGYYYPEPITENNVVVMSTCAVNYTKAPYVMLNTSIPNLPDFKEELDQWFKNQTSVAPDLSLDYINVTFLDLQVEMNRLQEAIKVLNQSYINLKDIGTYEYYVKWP

As to `CN(/N=C/c1ccccc1C(=O)O)c1nc(-c2ccccc2Cl)cs1` [S416], on HCoV-OC43 spike protein, the Kd was found to be 33.3 µM. The “1H CPMG and STD NMR; DARTS” value in assay [1] is “confirmed that S416 could indeed bind to RBD directly”.

Values taken from PMC12279193 (Advanced Science, 2025).
